# Laboratory results published in publication PMC11984407, “A natural small molecule isoginkgetin alleviates hypercholesterolemia and atherosclerosis by targeting ACLY” (Theranostics, 2025).
# Columns and labels:
# Apoe-/- mice = experiment: High cholesterol diet-induced atherosclerosis in Apoe-/- mice; format: in vivo, mouse
# Experimental: C57BL/6J (N000013, Gempharmatech, Nanjing, Jiangsu, China) and Apoe^-/- (T001458, Gempharmatech, Nanjing, Jiangsu, China) mice were employed. […] Alipoprotein E knockout (Apoe^-/-) mice were subjected to a 1.25% high cholesterol diet (#D12108C, RESEARCH DIETS, New Brunswick, NJ, USA). After 7 weeks of atherosclerosis induction, intraperitoneal injection of ISOGK (20 mg/kg/day) was initiated and continued for additional 8 weeks. Upon reaching the designated experimental endpoint, blood was collected retro-orbitally, and serum was isolated for subsequent biochemical parameter analysis. Subsequently, the aorta and heart tissues were processed. The aorta was subjected to Oil Red O staining (#G1260, SolarBio, Beijing, China) for en face examination, and cryosections of the aortic sinus were prepared for analysis as we previously described. The serum lipid profile was evaluated utilizing colorimetric kits from Leidu Biotech (Shenzhen, China). Liver samples were gathered, processed into a homogenate, and then centrifuged. The resulting transparent supernatant was utilized for assessing hepatic triglyceride (TG) and total cholesterol (TC) concentrations using kits obtained from commercial sources (290-63701 for TG, 294-65801 for TC; Wako, Tokyo, Japan and E-BC-K261-M for TG, E-BC-K109-M for TC; Elabscience, Wuhan, China). The levels of TG and TC were normalized against the weight of the liver tissue. Kits for antioxidant-related indicators, including GSH (S0059S, Beyotime, Shanghai, China), MDA (S0131S, Beyotime, Shanghai, China), SOD (S0101S, Beyotime, Shanghai, China), and ox-LDL (CSB-E07933m, CUSABIO, Beijing, China), were detected in mouse serum. Acly^flox/flox mice were sourced from the Shanghai Model Organisms Center (no. NM-CKO-200076). The Institutional Animal Care and Use Committee of the University of Science and Technology of China (USTC) approved all animal care procedures (approval number USTCACUC27120124102, USTCACUC212401038).
# Plasma levels of TC, TG, LDL-C, and high-density lipoprotein cholesterol (HDL-C) were determined following the manufacturer's instructions. Liver tissues (30-40 mg) were homogenized in 0.5 mL of cold PBS for hepatic TG and cholesterol measurement. A 0.4 mL homogenate was combined with 1.4 mL of a CHCl3/CH3OH mixture (2:1, v/v) and shaken overnight at room temperature. Following centrifugation at 2,500 × g for a period of 10 min, the organic phase was meticulously transferred and permitted to air-dry. The residual organic material was then reconstituted in 800 μL of ethanol containing 1% Triton X-100, whereby the ethanol served to solubilize the material.
# Fast protein liquid chromatography (FPLC) was employed to analyze plasma lipoproteins using 200 μL of pooled plasma samples. The samples were initially filtered through 0.22-µm filters and subsequently loaded onto Tricorn high-performance Superose S-6 10/300GL columns (Amersham Biosciences). Elution was conducted with PBS at a constant flow rate of 0.25 mL/min. The eluted fractions (500 μL each) were subjected to analysis for TG and TC concentrations using the aforementioned commercial assay kits.
# Cytokines, including C-reactive protein (CRP) (RK04303, ABclonal, Guangzhou, China), interleukin-1 beta (IL-1 β) (RK00006, ABclonal, Guangzhou, China), and interleukin-6 (IL-6) (RK00008, ABclonal, Guangzhou, China), were extracted from mouse serum and analyzed using enzyme-linked immunosorbent assay (ELISA) kits. All procedures were conducted in accordance with the instructions provided by the manufacturers.
# Tissue slides from the male Apoe^-/- mice aortic sinus was washed with PBS and then permeabilized in a solution of PBS with 0.3% BSA and 0.03% Triton X-100 for 1 h at room temperature. These sections were subsequently incubated overnight with primary antibodies at a 1:400 dilution, followed by a 1-h incubation with Alexa Fluor 488 or 546-conjugated sary antibodies at a 1:2000 dilution, also at room temperature. […]
# [1] = test system: primary mouse hepatocytes; experiment: De novo lipogenesis in vitro, [1,2-14C]-acetate incorporation; format: cell-based; details: 2.5 μmol/L and 5 μmol/L, 4 h
# Experimental: Hepatocytes were seeded in 6-well plates at a density of 6 x 10^5 cells per well. They were exposed to various compounds along with [1,2-^14C]-acetate (0.1 μCi per well) for specified durations. Following treatment, the cells underwent washing with cold PBS and were lysed in 0.4 to 0.6 mL of 0.5 M KOH. The saponification process at 95 °C for 3 h with 0.4 mL of KOH (in 20% methanol solution) enabled the separation of cholesterol and fatty acids. Cholesterol, being nonpolar, was extracted using 0.5 mL of petroleum ether in three separate instances. In comparison, polar fatty acids were extracted with 0.5 mL of petroleum ether after adding 0.2 mL of H2O and 0.4 mL of 5 M H2SO4 in three rounds. The petroleum ether extracts were left to air dry at room temperature overnight. The radioactivity of the resultant products was quantified using a liquid scintillation counter.
# [2] = 20 mg/kg/day i.p., 8 weeks, male or female Apoe-/- mice
# [3] = female Apoe-/- mice, 20 mg/kg/day, 8 weeks
# [4] = male Apoe-/- mice, 20 mg/kg/day, 8 weeks
smiles,measurement,setting,value
"COc1ccc(-c2cc(=O)c3c(O)cc(O)c(-c4cc(-c5cc(=O)c6c(O)cc(O)cc6o5)ccc4OC)c3o2)cc1 [ISOGK, Isoginkgetin]",body weight vs vehicle,Apoe-/- mice; [2],No significant changes in body weight
same,serum ALT and AST,Apoe-/- mice; [2],no significant changes
same,liver H&E and Sirius red staining,"Apoe-/- mice; 20 mg/kg/day, 8 weeks, Apoe-/- mice",no substantial pathological alterations
same,necrotic core area in aortic sinus (H&E),"Apoe-/- mice; Apoe-/- mice, 20 mg/kg/day, 8 weeks",notable reduction in the necrotic core area
same,"oxidative stress markers in serum (GSH, MDA, SOD, ox-LDL)","Apoe-/- mice; Apoe-/- mice, 8 weeks",no significant alterations
same,LDLR and ACLY protein expression in liver tissues,"Apoe-/- mice; Apoe-/- mice, Western blot",no significant change in either LDLR or ACLY protein expression
same,TG levels in serum and liver tissue,"Apoe-/- mice; Apoe-/- mice, irrespective of gender",notable decline in TG levels
same,serum LDL-C and HDL-C,Apoe-/- mice; female Apoe-/- mice,remained unchanged
same,decrease in aortic sinus lesion area (ORO) vs vehicle,Apoe-/- mice; [3],45.74%
same,decrease in liver tissue TC,Apoe-/- mice; [3],32.34%
same,decrease in serum TC,Apoe-/- mice; [3],24.24%
same,reduction of en face aortic lesion area (ORO) vs vehicle,Apoe-/- mice; [3],3.88%
same,TG and cholesterol carried in VLDL particles (FPLC),"Apoe-/- mice; female Apoe-/- mice, pooled plasma",significant reduction
same,serum LDL-C,Apoe-/- mice; male Apoe-/- mice,decreased the serum levels of LDL-C
same,content of macrophages in the aortic sinus (immunofluorescence),Apoe-/- mice; [4],substantial decline
same,content of smooth muscle cells and endothelial cells in the aortic sinus,Apoe-/- mice; [4],remained unaltered
same,decrease in aortic sinus lesion area (ORO) vs vehicle,Apoe-/- mice; [4],46.35%
same,decrease in liver tissue TC,Apoe-/- mice; [4],29.98%
same,decrease in serum TC,Apoe-/- mice; [4],27.15%
same,expression of cholesterol efflux genes in the liver,"Apoe-/- mice; male Apoe-/- mice, qRT-PCR",no significant differences
same,"serum CRP, IL-1β and IL-6 (ELISA)","Apoe-/- mice; male or female Apoe-/- mice, vehicle vs ISOGK",no statistically significant differences
same,"incorporation of [1,2-14C]-acetate into fatty acids and cholesterol",[1],inhibition of lipogenesis
